{
  "source": "EPA's ToxValDB 9.5 (doi:10.2903/j.efsa.2008.183r)",
  "key": {"Colinus virginianus": {"tested_on": "Colinus virginianus", "settings": "acute, oral, mortality; for LC50: diet"}, "Anas platyrhynchos": {"tested_on": "Anas platyrhynchos", "settings": "short-term; oral; feed; mortality"}, "Rattus norvegicus": {"tested_on": "Rattus norvegicus", "settings": "inhalation"}, "Coturnix japonica": {"tested_on": "Coturnix japonica", "settings": "reproduction developmental; reproduction"}, "Oncorhynchus mykiss": {"tested_on": "Oncorhynchus mykiss", "settings": "acute; duration: 96 hours; mortality"}, "[1]": {"settings": "chronic, duration: 2 years, no effects"}, "[2]": {"settings": "reproduction developmental, mortality"}, "[3]": {"settings": "subchronic, duration: 90 days, no effects"}},
  "data": [
    {"molecule": "[Ca+2].[Ca+2].[Ca+2].[P-3].[P-3]", "note": "[Tricalcium diphosphide]", "values": [
      {"measurement": "LC50", "setting": "Colinus virginianus", "result": 330, "unit": "mg/kg"},
      {"measurement": "LD50", "setting": "Colinus virginianus", "result": "< 24.7", "unit": "mg/kg-day"},
      {"measurement": "LC50", "setting": "Anas platyrhynchos", "result": 2040, "unit": "mg/kg"},
      {"measurement": "NOAEL", "setting": "Rattus norvegicus; [1]", "result": 1.1, "unit": "mg/kg-day"},
      {"measurement": "NOAEL", "setting": "Rattus norvegicus; [2]", "result": 1.9, "unit": "mg/kg-day"},
      {"measurement": "NOAEL", "setting": "Rattus norvegicus; [3]", "result": 1.1, "unit": "mg/kg-day"}
    ]},
    {"molecule": "[PH]=[Zn].[PH]=[Zn].[Zn]", "note": "[Zinc phosphide (Zn3P2)]", "values": [
      {"measurement": "NOEC", "setting": "Coturnix japonica", "result": "< 3.5", "unit": "mg/kg-day"},
      {"measurement": "LC50", "setting": "Colinus virginianus", "result": 469, "unit": "mg/kg"},
      {"measurement": "LD50", "setting": "Colinus virginianus", "result": "< 35", "unit": "mg/kg-day"},
      {"measurement": "LC50", "setting": "Anas platyrhynchos", "result": 2880, "unit": "mg/kg"}
    ]},
    {"molecule": "P", "note": "[Phosphine]", "values": [
      {"measurement": "LC50", "setting": "Oncorhynchus mykiss", "result": 4.68, "unit": "ng/mL"},
      {"measurement": "LC50", "setting": "Colinus virginianus", "result": 124, "unit": "mg/kg"},
      {"measurement": "LD50", "setting": "Colinus virginianus", "result": "≤ 9.2", "unit": "mg/kg-day"},
      {"measurement": "LC50", "setting": "Anas platyrhynchos", "result": 762, "unit": "mg/kg"},
      {"measurement": "NOAEL", "setting": "Rattus norvegicus; [1]", "result": 1.1, "unit": "mg/kg-day"},
      {"measurement": "NOAEL", "setting": "Rattus norvegicus; [2]", "result": 1.9, "unit": "mg/kg-day"},
      {"measurement": "NOAEL", "setting": "Rattus norvegicus; [3]", "result": 1.1, "unit": "mg/kg-day"}
    ]}
  ]
}
